The assay deals with recombinant human SYK (GST-hSYK fusion protein) (Homo sapiens, UniProt P43405). The experiment in a line: biochemical.
The mark [1] stands for this setting: rhSYK Activity (IC50), recombinant human GST-SYK 5 pM, ATP 25 μM, biotinylated substrate peptide 250 nM, HTRF, 10-dose titration.

Each structure is given as a SMILES string. A value given as a limit tells only on which side of the number the result lay.

38 molecules from US8551984B2, “Aminopyrimidines as SYK inhibitors” (Merck Sharp & Dohme Corp., priority 2009, dated 2013) can be followed below.

Description: Homogeneous Time-Resolved Fluorescence (HTRF) Assay for the Recombinant Human SYK Enzyme:

Regarding `Cc1cc(Nc2nccc(C(F)(F)F)n2)cc(-c2cnc(-c3cccnc3)s2)c1` [Example 114-3], the IC50 under setting [1] was < 100 nM.
As for `Cc1cc(Nc2nccc(C(F)(F)F)n2)cc(-c2cnc(-c3ccncc3)s2)c1` [Example 114-4], under setting [1], the IC50 was < 100 nM.
`Cc1cc(Nc2nccc(C(F)(F)F)n2)cc(-c2cnc(-c3cccs3)s2)c1` [Example 114-5]: the IC50 under setting [1] lay within 100 to 1000 nM.
In the case of `Cc1cc(Nc2nccc(C(F)(F)F)n2)cc(-c2cnc(-c3ccsc3)s2)c1` [Example 114-6], under setting [1], the IC50 is 100 to 1000 nM.
As for `Cc1cc(Nc2nccc(C(F)(F)F)n2)cc(-c2cnc(-c3ccco3)s2)c1` [Example 114-7], the IC50 under setting [1] is < 100 nM.
Turning to `Cc1cc(Nc2nccc(C(F)(F)F)n2)cc(-c2cnc(-c3ccc[nH]3)s2)c1` [Example 114-8], the IC50 under setting [1] is < 100 nM.
On the same count and under the same terms, under `Cc1cc(Nc2nccc(C(F)(F)F)n2)cc(-c2cnc(-c3cnn(CCO)c3)s2)c1` [Example 115, 2-{4-[5-(3-methyl-5-{[4-(trifluoromethyl)pyrimidin-2-yl]amino}phenyl)-1,3-thiazol-2-yl]-1H-pyrazol-1-yl}ethanol] stands < 100 nM.
On to `Cc1cc(Nc2nccc(C(F)(F)F)n2)cc(-c2cnc(-c3cnn(C4CCOCC4)c3)s2)c1` [Example 115-1], for which the IC50 (rhSYK Activity, Table 115) was < 100 nM.
As to `Cc1cc(Nc2nccc(C(F)(F)F)n2)cc(-c2cnc(-c3cnn(CCC#N)c3)s2)c1` [Example 115-2], the IC50 (rhSYK Activity, Table 115) is < 100 nM.
As for `Cc1cc(Nc2nccc(C(F)(F)F)n2)cc(-c2cnc(-c3cnn(CCCO)c3)s2)c1` [Example 115-3], the concentration for half-maximal inhibition (IC50) (rhSYK Activity, Table 115) is < 100 nM.
`Cc1cc(Nc2nccc(C(F)(F)F)n2)cc(-c2cnc(-c3cnn(C[C@@H](O)CO)c3)s2)c1` [Example 115-4]: under “rhSYK Activity, Table 115”, the IC50 is < 100 nM.
Same read-out and setting: as for `Cc1cc(Nc2nccc(C(F)(F)F)n2)cc(-c2cnc(-c3cnn(CC(C)(C)O)c3)s2)c1` [Example 115-5], the figure is < 100 nM; as for `Cc1cc(Nc2nccc(C(F)(F)F)n2)cc(-c2cnc(-c3cnn(C(CCO)C(=O)O)c3)s2)c1` (centres unmarked) [Example 115-6], < 100 nM.
`Cc1cc(Nc2nccc(C(F)(F)F)n2)cc(-c2cnc(-c3cnn(CC4CNC(=O)O4)c3)s2)c1` (centres unmarked) [Example 115-7]: where the note is “rhSYK Activity, Table 115”, the IC50 is < 100 nM.
Take `Cc1cc(Nc2nccc(OC(C)C)n2)cc(-c2cnc([C@@]3(O)CC[C@H](C(N)=O)C(C)(C)C3)s2)c1` [Example 119, (1S,4R)-4-hydroxy-2,2-dimethyl-4-[5-(3-methyl-5-{[4-(propan-2-yloxy)pyrimidin-2-yl]-amino}phenyl)-1,3-thiazol-2-yl]cyclohexanecarboxamide]: the IC50 under setting [1] is < 100 nM.
Still for that read-out and setting: under `COC(=O)[C@@H]1CC[C@@](O)(c2ncc(-c3cc(C)cc(Nc4nccc(C(F)(F)F)n4)c3)s2)CC1(C)C` [Example 121, Methyl(1R,4S)-4-hydroxy-2,2-dimethyl-4-[5-(3-methyl-5-{[4-(trifluoromethyl)pyrimidin-2-yl]-amino}phenyl)-1,3-thiazol-2-yl]cyclohexanecarboxylate] stands < 100 nM; under `COCCCc1ccnc(Nc2cc(C)cc(-c3cnc(C4(O)CCC(C(=O)OC(C)(C)C)CC4)s3)c2)n1` (centres unmarked) [Example 122, tert-butyl 4-hydroxy-4-[5-(3-{[4-(3-methoxypropyl)pyrimidin-2-yl]amino}-5-methylphenyl)-1,3-thiazol-2-yl]cyclohexanecarboxylate], 100 to 1000 nM.
On the same count and under the same terms, under `CC1(C)C[C@@](O)(c2ncc(-c3cc(CN)cc(Nc4nccc(C(F)(F)F)n4)c3)s2)CC[C@@H]1C(=O)O` [Example 123, (1S,4R)-4-{5-[3-(aminomethyl)-5-{[4-(trifluoromethyl)pyrimidin-2-yl]amino}phenyl]-1,3-thiazol-2-yl}-4-hydroxy-2,2-dimethylcyclohexanecarboxylic acid] stands < 100 nM; under `CC1(C)C[C@@](O)(c2ncc(-c3cc(CNC(N)=O)cc(Nc4nccc(C(F)(F)F)n4)c3)s2)CC[C@@H]1C(=O)O` [Example 124, (1S,4R)-4-[5-(3-[(carbamoylamino)methyl]-5-{[4-(trifluoromethyl)pyrimidin-2-yl]amino}phenyl)-1,3-thiazol-2-yl]-4-hydroxy-2,2-dimethylcyclohexanecarboxylic acid], < 100 nM.
Still for that read-out and setting: as for `CC(=O)NCc1cc(Nc2nccc(C(F)(F)F)n2)cc(-c2cnc([C@@]3(O)CC[C@H](C(=O)O)C(C)(C)C3)s2)c1` [Example 125, (1S,4R)-4-[5-(3-[(acetylamino)methyl]-5-{[4-(trifluoromethyl)pyrimidin-2-yl]amino}phenyl)-1,3-thiazol-2-yl]-4-hydroxy-2,2-dimethylcyclohexanecarboxylic acid], the figure is < 100 nM.
For the molecule `Cc1cc(Nc2nccc(C(F)(F)F)n2)cc(-c2cnc(C3(OCCO)CCNC(=O)CC3)s2)c1` (centres unmarked) [Example 127, 5-(2-hydroxyethoxy)-5-[5-(3-methyl-5-{[4-(trifluoromethyl)pyrimidin-2-yl]amino}phenyl)-1,3-thiazol-2-yl]azepan-2-one], the IC50 under setting [1] is < 100 nM.
`Cc1cc(Nc2nccc(C(F)(F)F)n2)cc(-c2cnc(C3(C#N)CCCCC3)s2)c1` [Example 128, 1-[5-(3-methyl-5-{[4-(trifluoromethyl)pyrimidin-2-yl]amino}phenyl)-1,3-thiazol-2-yl]cyclohexanecarbonitrile]: the IC50 under setting [1] was in the range of 100 to 1000 nM.
The same measure, in the same setting: under `Cc1cc(Nc2nccc(C(F)(F)F)n2)cc(-c2cnc(C3(C(N)=O)CCCCC3)s2)c1` [Example 129, 1-[5-(3-methyl-5-{[4-(trifluoromethyl)pyrimidin-2-yl]amino}phenyl)-1,3-thiazol-2-yl]cyclohexanecarboxamide] stands < 100 nM; under `Cc1cc(Nc2nccc(C(F)(F)F)n2)cc(-c2cnc(C3CCCCC3)s2)c1` [Example 130], 100 to 1000 nM; under `Cc1cc(Nc2nccc(C(F)(F)F)n2)cc(-c2cnc(C(C)(O)c3ccc(S(C)(=O)=O)cc3)s2)c1` (centres unmarked) [Example 131, 1-[4-(methylsulfonyl)phenyl]-1-[5-(3-methyl-5-{[4-(trifluoromethyl)pyrimidin-2-yl]amino}phenyl)-1,3-thiazol-2-yl]ethanol], < 100 nM.
As for `Cc1cc(Nc2nccc(C(F)(F)F)n2)cc(-c2cnc(C3(F)CCSCC3)s2)c1` [Example 132, N-{3-[2-(4-fluorotetrahydro-2H-thiopyran-4-yl)-1,3-thiazol-5-yl]-5-methylphenyl}-4-(trifluoromethyl)pyrimidin-2-amine], under setting [1], the IC50 fell in the range of 100 to 1000 nM.
As to `Cc1cc(Nc2nccc(C(F)(F)F)n2)cc(-c2cnc(C3=CCSCC3)s2)c1` [Example 133, N-{3-[2-(3,6-dihydro-2H-thiopyran-4-yl)-1,3-thiazol-5-yl]-5-methylphenyl}-4-(trifluoromethyl)pyrimidin-2-amine], the IC50 under setting [1] is < 100 nM.
On to `Cc1cc(Nc2nccc(C(F)(F)F)n2)cc(-c2cnc(C3(F)CCS(=O)(=O)CC3)s2)c1` [Example 134, N-{3-[2-(4-fluoro-1,1-dioxidotetrahydro-2H-thiopyran-4-yl)-1,3-thiazol-5-yl]-5-methylphenyl}-4-(trifluoromethyl)pyrimidin-2-amine], for which, under setting [1], the IC50 was < 100 nM.
With `Cc1cc(Nc2nccc(C(F)(F)F)n2)cc(-c2cnc(C3=CCS(=O)(=O)CC3)s2)c1` [Example 135, N-{3-[2-(1,1-dioxido-3,6-dihydro-2H-thiopyran-4-yl)-1,3-thiazol-5-yl]-5-methylphenyl}-4-(trifluoromethyl)pyrimidin-2-amine], under setting [1], the IC50 is < 100 nM.
As for `Cc1cc(Nc2nccc(C(F)(F)F)n2)cc(-c2cnc(C3CCSCC3)s2)c1` [Example 136, N-{3-methyl-5-[2-(tetrahydro-2H-thiopyran-4-yl)-1,3-thiazol-5-yl]phenyl}-4-(trifluoromethyl)pyrimidin-2-amine], under setting [1], the IC50 is < 100 nM.
Same read-out and setting: as for `Cc1cc(Nc2nccc(C(F)(F)F)n2)cc(-c2cnc(C3CCS(=O)(=O)CC3)s2)c1` [Example 137, N-{3-[2-(1,1-dioxidotetrahydro-2H-thiopyran-4-yl)-1,3-thiazol-5-yl]-5-methylphenyl}-4-(trifluoromethyl)pyrimidin-2-amine], the figure is < 100 nM; as for `Cc1cc(Nc2nccc(C(F)(F)F)n2)cc(-c2cnc(C34CCC(C(=O)O3)C(C)(C)C4)s2)c1` (stereo not drawn) [Example 139, Cis-5,5-dimethyl-1-[5-(3-methyl-5-{[4-(trifluoromethyl)pyrimidin-2-yl]amino}phenyl)-1,3-thiazol-2-yl]-2-oxabicyclo[2.2.2]octan-3-one], 100 to 1000 nM; as for `Cc1cc(Nc2nccc(C(F)(F)F)n2)cc(-c2cnc(C3(O)CCC(O)C4(CC4)C3)s2)c1` (centres unmarked) [Example 143(A), 7-[5-(3-methyl-5-{[4-(trifluoromethyl)pyrimidin-2-yl]amino}phenyl)-1,3-thiazol-2-yl]spiro[2.5]octane-4,7-diol], < 100 nM.
Regarding `Cc1cc(Nc2nccc(C(F)(F)F)n2)cc(-c2cnc(C3(O)CC4(CC4)C(O)C4(CC4)C3)s2)c1` (centres unmarked) [Example 143(B), 9-[5-(3-methyl-5-{[4-(trifluoromethyl)pyrimidin-2-yl]amino}phenyl)-1,3-thiazol-2-yl]dispiro[2.1.2.3]decane-4,9-diol], the IC50 under setting [1] was < 100 nM.
With `Cc1cc(Nc2nccc(C(F)(F)F)n2)cc(-c2cnc(C3CCCCNC3=O)s2)c1` (centres unmarked) [Example 144, 3-[5-(3-methyl-5-{[4-(trifluoromethyl)pyrimidin-2-yl]amino}phenyl)-1,3-thiazol-2-yl]azepan-2-one], the IC50 under setting [1] is < 100 nM.
The same measure, in the same setting: as for `Cc1cc(Nc2nccc(C(F)(F)F)n2)cc(-c2cnc(/C=C/c3ccc(C(=O)O)cc3)s2)c1` [Example 147], the figure is < 100 nM.
`Cc1cc(Nc2nccc(C(F)(F)F)n2)cc(-c2cnc(CCc3ccc(C(=O)O)cc3)s2)c1` [Example 148, 4-{2-[5-(3-methyl-5-{[4-(trifluoromethyl)pyrimidin-2-yl]amino}phenyl)-1,3-thiazol-2-yl]ethyl}benzoic acid]: the IC50 under setting [1] is < 100 nM.
On the same count and under the same terms, as for `Cc1cc(Nc2nccc(C(F)(F)F)n2)cc(-c2cnc(C(C)(O)c3ccc(C(=O)O)nc3)s2)c1` (centres unmarked) [Example 149, 5-{1-Hydroxy-1-[5-(3-methyl-5-{[4-(trifluoromethyl)pyrimidin-2-yl]amino}phenyl)-1,3-thiazol-2-yl]ethyl}pyridine-2-carboxylic acid], the figure is < 100 nM.
